The text below walks through data of patent US8563472B2 (priority 2010, dated 2013).

One data set concerns Phytophthora infestans. In kind it is in vivo. The settings on record: hydrazone 50 ppm with 50 μM CuCl2.2H2O, applied 24 h before inoculation, tomato plants, assessed 7 d after inoculation.
Data set [1] concerns Leptosphaeria nodorum (LEPTNO). The data set can be described thus: In vitro fungitoxicity assay against Leptosphaeria nodorum in copper-minus / copper-plus liquid medium. Format: cell-based. The settings on record: test compound 0.05 μg/mL, 25° C., 72 h; for inhibition of growth at 0.05 µg/mL: Parastagonospora nodorum, copper-minus medium, growth by light scattering, read-out: LEPTNO % Inhn. Minus Copper Observed; for LEPTNO % Inhn. Plus Copper Observed: copper-plus medium (CuCl2.2H2O). Here is the method: In vitro fungitoxicity assays against Leptosphaeria nodorum (LEPTNO) were conducted using the liquid growth medium described by Coursen and Sisler (American Journal of Botany 1960, 47, 541-549) except that copper micronutrient, normally included as CuSO4, was omitted. The medium, termed “copper-minus”, was prepared by dissolving 10 g glucose, 1.5 g K2HPO4, 2 g KH2PO4 and 1 g (NH4)2SO4 in 1 liter of deionized water and treating the solution with 0.5 g Chelex 100 resin (Bio-Rad Analytical grade, 50-100 mesh, sodium form, cat#142-2822) by stirring at room temperature for 1 h. MgSO4.7H2O (0.5 g) was added, and stirring was continued for a further hour. Trace elements (minus CuSO4), and vitamins described by Coursen and Sisler were added from concentrated stock solutions and the entire medium was sterilized by filtration. Medium containing copper was prepared by adding CuCl2.2H2O to the copper-minus medium at 20 μM. […] Copper-minus medium (100 μL) was added to one of the wells and copper-plus medium to the second well. Control wells, included for each medium, received 1 μL DMSO and 100 μL of medium.
LEPTNO was grown on potato dextrose agar in 9 cm diameter petri dishes for 7 days (d). Sterile deionized water (20 mL) was added to a culture plate and spores suspended by scraping the surface gently with a sterile plastic loop. The resulting suspension was filtered through a double layer of sterile cheesecloth. […] The spores were resuspended in copper-minus medium, and the suspension adjusted to 2×10^5 spores per mL. Microtiter plates were inoculated with 100 μL of this spore suspension and the plates incubated at 25° C. for 72 h before assessing fungal growth by measuring light scattering in a NepheloStar plate reader. Growth inhibition was determined by comparing growth in the presence of test compound with growth in control wells lacking test compound.

Take `O=C(N/N=C/c1cc(Cl)cc(Cl)c1O)c1cnn(-c2ccc(Cl)cc2)c1C(F)(F)F` [Compound 17]: the melting point (in general, the temperature of the solid-liquid transition) was in the range of 216 to 217 °C. The TLB % control in the data set with Phytophthora infestans is recorded as 69%. In data set [1], the inhibition of growth at 0.05 µg/mL stood at 15.8% and the “LEPTNO % Inhn. Plus Copper Observed” value came to 92.6%.

With `Cc1cc(C(=O)N/N=C/c2cc(Br)cc(Br)c2O)cs1` [Compound 32], the melting point fell in the range of 203 to 205 °C. Moreover, the TLB % control in the data set with Phytophthora infestans came to 69%. Moreover, in data set [1], the inhibition of growth at 0.05 µg/mL came out at 0% and the “LEPTNO % Inhn. Plus Copper Observed” value came to 97.6%.

`O=C(N/N=C/c1cc(Br)cc(Br)c1O)c1cnn(-c2ccc(Cl)cc2)c1C(F)(F)F` [Compound 29] registered a melting point of 237 to 238 °C. In the data set on Phytophthora infestans, the TLB % control was found to be 47%. Further, in data set [1], the inhibition of growth at 0.05 µg/mL amounted to 7.8% and the “LEPTNO % Inhn. Plus Copper Observed” value is listed as 57.6%.

The compound `O=C(N/N=C/c1cc(Br)cc(Br)c1O)c1ccsc1` [Compound 34] registered a melting point of 236 to 237 °C. In the data set on Phytophthora infestans, this compound showed a TLB % control of 80%. Also, in data set [1], the inhibition of growth at 0.05 µg/mL was found to be 0% and the “LEPTNO % Inhn. Plus Copper Observed” value turned out to be 97.9%.

Compound `Cc1nc(C)c(C(=O)N/N=C/c2cc(Br)cc(Br)c2O)s1` [Compound 30] displayed a melting point of 225 to 226 °C. Further, the TLB % control with Phytophthora infestans was 49%. In data set [1], the inhibition of growth at 0.05 µg/mL came to 1% and the “LEPTNO % Inhn. Plus Copper Observed” value was 71.2%.

With `O=C(N/N=C/c1cc(Br)cc(Br)c1O)c1ccc(Cl)s1` [Compound 31], the melting point lay in the range of 247 to 248 °C. This compound also yielded a TLB % control in the data set with Phytophthora infestans of 88%. Besides, in data set [1], the inhibition of growth at 0.05 µg/mL worked out at 4.9% and the “LEPTNO % Inhn. Plus Copper Observed” value is 97.8%.

`Cc1cc(C(=O)N/N=C/c2ccccc2O)c2cc(Br)ccc2n1` [Compound 3]: the melting point fell in the range of 270 to 275 °C. The compound also displayed a TLB % control with Phytophthora infestans of 25%. Further, in data set [1], the inhibition of growth at 0.05 µg/mL amounted to 0% and the “LEPTNO % Inhn. Plus Copper Observed” value stood at 72.9%.

On to `C/C(=N\NC(=O)c1sc(C)nc1C)c1ccccc1O` [Compound 37], for which the melting point lay in the range of 202 to 204 °C. The compound further displayed a TLB % control with Phytophthora infestans of 81%. Also, in data set [1], the inhibition of growth at 0.05 µg/mL stood at 0% and the “LEPTNO % Inhn. Plus Copper Observed” value was 94.2%.

The compound `C/C(=N\NC(=O)c1cnn(-c2ccc(Cl)cc2)c1C(F)(F)F)c1cc(Br)cc(Br)c1O` [Compound 48] gave a melting point of 121 to 125 °C. Further, in the data set with Phytophthora infestans, the TLB % control is 19%. In data set [1], the inhibition of growth at 0.05 µg/mL was found to be 4.3% and the “LEPTNO % Inhn. Plus Copper Observed” value was 56%.

Take `Cc1nn(-c2ccccc2)nc1C(=O)N/N=C/c1ccccc1O` [Compound 21]: the melting point was 231 to 233 °C. The compound also showed a TLB % control in the data set with Phytophthora infestans of 16%. Also, in data set [1], the inhibition of growth at 0.05 µg/mL amounted to 0% and the “LEPTNO % Inhn. Plus Copper Observed” value is listed as 93.9%.

Regarding `O=C(N/N=C/c1ccccc1O)c1cc2ccccc2s1` [Compound 20], the melting point lay within 220 to 221 °C. In the data set on Phytophthora infestans, the TLB % control is 18%. Moreover, in data set [1], the inhibition of growth at 0.05 µg/mL was 4.2% and the “LEPTNO % Inhn. Plus Copper Observed” value came out at 95.4%.

Compound `C/C(=N\NC(=O)c1sc(C)nc1C)c1cc(Br)cc(Br)c1O` [Compound 49] showed a melting point of 221 to 223 °C. In the data set with Phytophthora infestans, this compound returned a TLB % control of 61%. Besides, in data set [1], the inhibition of growth at 0.05 µg/mL worked out at 2.6% and the “LEPTNO % Inhn. Plus Copper Observed” value came to 89.1%.

Take `C/C(=N\NC(=O)c1csc(C)c1)c1ccccc1O` [Compound 39]: the melting point is 158 to 160 °C. For the same compound, in the data set with Phytophthora infestans, the TLB % control came to 66%. Further, in data set [1], the inhibition of growth at 0.05 µg/mL was 0% and the “LEPTNO % Inhn. Plus Copper Observed” value is given as 97.3%.

Compound `CCn1nc(C)cc1C(=O)N/N=C/c1cc(Cl)cc(Cl)c1O` [Compound 16] had a melting point of 221 to 222 °C. The compound also registered a TLB % control with Phytophthora infestans of 39%. In data set [1], the inhibition of growth at 0.05 µg/mL was 3.5% and the “LEPTNO % Inhn. Plus Copper Observed” value is given as 88%.

As for `Cc1cc(C(=O)N/N=C/c2cc(Cl)cc(Cl)c2O)c2cc(Br)ccc2n1` [Compound 1], the melting point fell in the range of 265 to 267 °C. In the data set on Phytophthora infestans, this compound had a TLB % control of 7%. Besides, in data set [1], the inhibition of growth at 0.05 µg/mL turned out to be 2.5% and the “LEPTNO % Inhn. Plus Copper Observed” value is 73.8%.

Consider `O=C(N/N=C/c1cc(Cl)cc(Cl)c1O)c1ccc(Cl)s1` [Compound 26], for which the melting point lay within 248 to 250 °C. The TLB % control in the data set on Phytophthora infestans is on record as 92%. In data set [1], the inhibition of growth at 0.05 µg/mL was determined as 2.7% and the “LEPTNO % Inhn. Plus Copper Observed” value turned out to be 97.5%.

The compound `Cc1cc(C(=O)N/N=C/c2cc(Cl)cc(Cl)c2O)cs1` [Compound 27] registered a melting point of 189 to 191 °C. Besides, in the data set with Phytophthora infestans, the TLB % control turned out to be 78%. In addition, in data set [1], the inhibition of growth at 0.05 µg/mL came out at 5.4% and the “LEPTNO % Inhn. Plus Copper Observed” value was found to be 97.3%.

For `C/C(=N\NC(=O)c1cnn(-c2ccc(Cl)cc2)c1C(F)(F)F)c1ccccc1O` [Compound 35], the melting point is 201 to 202 °C. In addition, in the data set on Phytophthora infestans, the TLB % control is 59%. Besides, in data set [1], the inhibition of growth at 0.05 µg/mL came out at 4.3% and the “LEPTNO % Inhn. Plus Copper Observed” value amounted to 94.8%.

As for `Cc1cc(C(=O)N/N=C/c2ccccc2O)cs1` [Compound 24], the melting point fell in the range of 180 to 182 °C. This compound also had a TLB % control in the data set on Phytophthora infestans of 56%. Moreover, in data set [1], the inhibition of growth at 0.05 µg/mL worked out at 2.9% and the “LEPTNO % Inhn. Plus Copper Observed” value turned out to be 94.8%.

Regarding `C/C(=N\NC(=O)c1ccoc1C)c1cc(Cl)cc(Cl)c1O` [Compound 46], the melting point is 212 to 215 °C. The TLB % control in the data set on Phytophthora infestans was found to be 69%. Moreover, in data set [1], the inhibition of growth at 0.05 µg/mL was 0% and the “LEPTNO % Inhn. Plus Copper Observed” value is 97.2%.

Regarding `C/C(=N\NC(=O)c1csc(C)c1)c1cc(Br)cc(Br)c1O` [Compound 51], the melting point lay within 237 to 239 °C. Further, the TLB % control in the data set on Phytophthora infestans is 88%. In data set [1], the inhibition of growth at 0.05 µg/mL came out at 2.2% and the “LEPTNO % Inhn. Plus Copper Observed” value amounted to 98%.

For the compound `C/C(=N\NC(=O)c1ccoc1C)c1cc(Br)cc(Br)c1O` [Compound 52], the melting point was 201 to 204 °C. In the data set with Phytophthora infestans, this compound displayed a TLB % control of 66%. In addition, in data set [1], the inhibition of growth at 0.05 µg/mL is 0% and the “LEPTNO % Inhn. Plus Copper Observed” value was 97.7%.
